# Experiments:
# [1] = tested on: 3hpdh, 3hibdhIV, and mmsadh; test: Inducer specificity of gene expression (FIGS. 4 and 5); assay type: cell-based, Pseudomonas denitrificans; conditions: for inducer of expression of mmsadh and 3hibdhIV: FIG. 4; for amplification of the genes 3hpdh, 3hibdhIV and mmsadh by the compound: FIGS. 4 and 5
# [2] = tested on: 3hpdh; test: RT-PCR relative mRNA level of 3-HP catabolic gene; conditions: FIG. 5
SMILES,inducer of expression of mmsadh and 3hibdhIV [1],"amplification of the genes 3hpdh, 3hibdhIV and mmsadh by the compound [1]",inducer of expression of 3hpdH [2]
CC(C)[C@H](N)C(=O)O [L-valine],acts as an inducer,induced,acts as an inducer
CC(=O)O [acetic acid],–,not induced,–
"CC(O)C(C)O (centres unmarked) [2,3-butandiol]",–,not induced,–
CC(O)C(=O)O (centres unmarked) [lactic acid],–,not induced,–
CCC(=O)O [propionic acid],–,not induced,–
"OCCCO [1,3-propanediol]",–,not induced,–
"CC(CO)C(=O)O (centres unmarked) [3HIB, 3-hydroxyisobutyrate]",acts as an inducer,amplified,acts as an inducer
"CC(O)CC(=O)O (centres unmarked) [3-HB, 3-hydroxybutyrate]",acts as an inducer,amplified,acts as an inducer

# — patent US10961539B2, “Promoter system inducing expression by 3-hydroxypropionic acid and method for biological production of 3-hydroxypropionic acid using same” (NOROO IC Co., Ltd., priority 2015, dated 2021)
